According to PubChem BioAssay (NCI):
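Grown in 96-well plates, cells were treated for 48 hours with each compound at five concentrations. Insufficient inhibition: endpoint recorded as highest concentration tested. Abbreviation: GI50, concentration required for 50% inhibition of growth. TGI marks complete inhibition of growth.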

Key:
Experiment in all cases: DTP human tumour cell line panel, 48 h
[1] = system: EKVX NSCLC
[2] = system: SK-MEL-2 melanoma
[3] = system: SNB-75 CNS
[4] = system: NCI-H226 lung
[5] = system: KM12 colon
[6] = system: ACHN renal
[7] = system: 786-0 renal
[8] = system: NCI/ADR-RES ovarian
[9] = system: MOLT-4 leukemia
[10] = system: SF-295 CNS
[11] = system: MDA-MB-231 breast
[12] = system: DU-145 prostate
[13] = system: A498 renal
[14] = system: LOX IMVI melanoma
[15] = system: SK-MEL-5 melanoma
[16] = system: HOP-62 NSCLC
[17] = system: HCT-116 colon
[18] = system: RPMI-8226 leukemia
[19] = system: OVCAR-4 ovarian
[20] = system: COLO 205 colon
[21] = system: A549 NSCLC
[22] = system: OVCAR-8 ovarian
[23] = system: HOP-92 NSCLC
[24] = system: SNB-19 CNS
[25] = system: OVCAR-5 ovarian
[26] = system: UACC-257 melanoma
[27] = system: NCI-H23 lung
[28] = system: SR leukemia
[29] = system: SK-OV-3 ovarian
[30] = system: CAKI-1 renal
[31] = system: HL-60(TB) leukemia
[32] = system: SW-620 colon
[33] = system: HCT-15 colon
[34] = system: SF-268 CNS
[35] = system: HT29 colon
[36] = system: TK-10 renal
[37] = system: MDA-N
[38] = system: SN12C renal
[39] = system: SF-539 CNS
[40] = system: M14 melanoma
[41] = system: UACC-62 melanoma
[42] = system: UO-31 renal
[43] = system: U251 CNS
[44] = system: BT-549 breast
[45] = system: OVCAR-3 ovarian
[46] = system: NCI-H460 lung
[47] = system: T-47D breast
[48] = system: MCF7 breast
[49] = system: IGROV1 ovarian
[50] = system: K-562 leukemia
[51] = system: PC-3 prostate
[52] = system: SK-MEL-28 melanoma
[53] = system: RXF 393 renal
[54] = system: NCI-H522 lung
[55] = system: MALME-3M melanoma
[56] = system: CCRF-CEM leukemia
[57] = system: HCC-2998 colon
[58] = system: MDA-MB-435
[59] = system: HS 578T breast

## Cn1nc(-c2ccc(S(=O)(=O)/N=C(\NN)Nc3ccc(Cl)cc3)s2)cc1C(F)(F)F
[1]
  TGI: 28.2 µM
[2]
  TGI: 34.1 µM
[3]
  TGI: 29.9 µM
[4]
  TGI: 32.6 µM
[5]
  TGI: 31.5 µM
[6]
  TGI: 33.8 µM
[7]
  TGI: 30.6 µM
[8]
  TGI: 50.7 µM
[9]
  TGI: 22.4 µM
[10]
  TGI: 31.3 µM
[11]
  TGI: 32.2 µM
[12]
  TGI: 30.8 µM
[13]
  TGI: 31 µM
[14]
  TGI: 34.2 µM
[15]
  TGI: 35.9 µM
[16]
  TGI: 32.3 µM
[17]
  TGI: 29.2 µM
[18]
  TGI: 56 µM
[19]
  TGI: 29.9 µM
[20]
  TGI: 37.6 µM
[21]
  TGI: 29.3 µM
[22]
  TGI: 43 µM
[23]
  TGI: 40.2 µM
[24]
  TGI: 30.2 µM
[25]
  TGI: 30.1 µM
[26]
  TGI: 34 µM
[27]
  TGI: 40.9 µM
[28]
  TGI: 41.7 µM
[29]
  TGI: 41.9 µM
[30]
  TGI: 35.1 µM
[31]
  TGI: 22.6 µM
[32]
  TGI: 36.9 µM
[33]
  TGI: 47.5 µM
[34]
  TGI: 32.6 µM
[35]
  TGI: 30.4 µM
[36]
  TGI: 35.6 µM
[37]
  TGI: 28 µM
[38]
  TGI: 31.4 µM
[39]
  TGI: 30 µM
[40]
  TGI: 31.5 µM
[41]
  TGI: 31.1 µM
[42]
  TGI: 28 µM
[43]
  TGI: 28.3 µM
[44]
  TGI: 33.3 µM
[45]
  TGI: 36.4 µM
[46]
  TGI: 37.9 µM
[47]
  TGI: 27.6 µM
[48]
  TGI: 44.5 µM
[49]
  TGI: 36 µM
[50]
  TGI: 35.4 µM
[51]
  TGI: 31.2 µM
[52]
  TGI: 33.8 µM
[53]
  TGI: 23.6 µM

## O=c1c(F)cn2c(=O)n1CCCCCCCn1c(=O)c(F)cn(c1=O)CCCCCCC2
[1]
  TGI: > 100 µM
[2]
  TGI: > 100 µM
[3]
  TGI: 27 µM
[4]
  TGI: > 100 µM
[5]
  TGI: > 100 µM
[6]
  TGI: > 100 µM
[7]
  TGI: > 100 µM
[8]
  TGI: > 100 µM
[9]
  TGI: > 100 µM
[10]
  TGI: > 100 µM
[11]
  TGI: > 100 µM
[12]
  TGI: 12.4 µM
[54]
  TGI: > 100 µM
[13]
  TGI: > 100 µM
[14]
  TGI: > 100 µM
[15]
  TGI: > 100 µM
[16]
  TGI: > 100 µM
[17]
  TGI: > 100 µM
[18]
  TGI: > 100 µM
[19]
  TGI: 98.4 µM
[20]
  TGI: > 100 µM
[21]
  TGI: > 100 µM
[22]
  TGI: > 100 µM
[23]
  TGI: > 100 µM
[24]
  TGI: > 100 µM
[25]
  TGI: > 100 µM
[26]
  TGI: > 100 µM
[27]
  TGI: > 100 µM
[55]
  TGI: 88.8 µM
[28]
  TGI: > 100 µM
[29]
  TGI: > 100 µM
[30]
  TGI: > 100 µM
[31]
  TGI: > 100 µM
[32]
  TGI: > 100 µM
[33]
  TGI: > 100 µM
[34]
  TGI: 13.1 µM
[35]
  TGI: > 100 µM
[36]
  TGI: > 100 µM
[37]
  TGI: > 100 µM
[38]
  TGI: > 100 µM
[39]
  TGI: > 100 µM
[40]
  TGI: > 100 µM
[41]
  TGI: > 100 µM
[42]
  TGI: > 100 µM
[56]
  TGI: > 100 µM
[43]
  TGI: > 100 µM
[45]
  TGI: > 100 µM
[46]
  TGI: > 100 µM
[57]
  TGI: > 100 µM
[47]
  TGI: > 100 µM
[48]
  TGI: > 100 µM
[49]
  TGI: > 100 µM
[50]
  TGI: > 100 µM
[51]
  TGI: > 100 µM
[58]
  TGI: > 100 µM
[52]
  TGI: 22.2 µM
[53]
  TGI: > 100 µM

## O=C1C=C[C@H](O)[C@@]2(CO)O[C@@H]12
[1]
  GI50: 9.69 µM
  TGI: 49.9 µM
[2]
  GI50: 14.6 µM
  TGI: 33.5 µM
[3]
  GI50: 11.3 µM
  TGI: 23.4 µM
[4]
  GI50: 17.3 µM
  TGI: 50.7 µM
[5]
  GI50: 12.1 µM
  TGI: 24.5 µM
[6]
  GI50: 9.42 µM
  TGI: 22 µM
[7]
  GI50: 16.4 µM
  TGI: 30 µM
[8]
  GI50: 16.6 µM
  TGI: 45.8 µM
[9]
  GI50: 2.99 µM
  TGI: 16.5 µM
[10]
  GI50: 8.26 µM
  TGI: 38.5 µM
[11]
  GI50: 15.5 µM
  TGI: 30.1 µM
[12]
  GI50: 14.3 µM
  TGI: 27.4 µM
[54]
  GI50: 1.81 µM
  TGI: 3.79 µM
[13]
  GI50: 18.4 µM
  TGI: 45.4 µM
[14]
  GI50: 5.51 µM
  TGI: 19.8 µM
[15]
  GI50: 16.1 µM
  TGI: 29.7 µM
[16]
  GI50: 23.7 µM
  TGI: > 55.2 µM
[17]
  GI50: 1.79 µM
  TGI: 3.33 µM
[18]
  GI50: 3.38 µM
  TGI: 12 µM
[19]
  GI50: 13 µM
  TGI: 29.4 µM
[20]
  GI50: 1.84 µM
  TGI: 3.55 µM
[21]
  GI50: 23.7 µM
  TGI: > 60.1 µM
[22]
  GI50: 13.2 µM
  TGI: 31.9 µM
[23]
  GI50: 4.77 µM
  TGI: 14.6 µM
[24]
  GI50: 18.9 µM
  TGI: 48.9 µM
[25]
  GI50: 15.6 µM
  TGI: 29 µM
[26]
  GI50: 9.25 µM
  TGI: 23.6 µM
[27]
  GI50: 15.8 µM
  TGI: 31.3 µM
[55]
  GI50: 2.53 µM
  TGI: 9.32 µM
[28]
  GI50: 4.64 µM
  TGI: > 100 µM
[29]
  GI50: 28.4 µM
  TGI: > 96.1 µM
[30]
  GI50: 3.04 µM
  TGI: 19.3 µM
[31]
  GI50: 2.65 µM
  TGI: 8.3 µM
[32]
  GI50: 2.23 µM
  TGI: 5.33 µM
[33]
  GI50: 14.3 µM
  TGI: 30.5 µM
[34]
  GI50: 15.3 µM
  TGI: 29 µM
[35]
  GI50: 6.32 µM
  TGI: 19.7 µM
[36]
  GI50: 16.1 µM
  TGI: 29.8 µM
[59]
  GI50: 30.6 µM
  TGI: > 83.6 µM
[38]
  GI50: 8.53 µM
  TGI: 22.4 µM
[39]
  GI50: 11.6 µM
  TGI: 25.6 µM
[40]
  GI50: 15.2 µM
  TGI: 29 µM
[41]
  GI50: 4.55 µM
  TGI: 14.3 µM
[42]
  GI50: 10.4 µM
  TGI: 24 µM
[56]
  GI50: 2.7 µM
  TGI: 12.3 µM
[43]
  GI50: 9.26 µM
  TGI: 23.2 µM
[44]
  GI50: 12.4 µM
  TGI: 25.5 µM
[45]
  GI50: 3.31 µM
  TGI: 10.7 µM
[46]
  GI50: 26.8 µM
  TGI: > 66.1 µM
[57]
  GI50: 17.2 µM
  TGI: 31 µM
[47]
  GI50: 8.16 µM
  TGI: 26.3 µM
[48]
  GI50: 5.38 µM
  TGI: 23.8 µM
[49]
  GI50: 10.1 µM
  TGI: 29.8 µM
[50]
  GI50: 3.35 µM
  TGI: > 75.5 µM
[51]
  GI50: 16.3 µM
  TGI: 39.5 µM
[58]
  GI50: 9.92 µM
  TGI: > 51.5 µM
[52]
  GI50: 12.8 µM
  TGI: 25.7 µM
[53]
  GI50: 4.96 µM
  TGI: 12 µM
